According to patent US12595251B2, “Amidines and amidine analogs for the treatment of bacterial infections and potentiation antibiotics” (GEORGIA STATE UNIVERSITY RESEARCH FOUNDATION, INC., priority 2018, dated 2026):
Structures can show the parent of a compound that is named as a salt.

Tests used:
E. coli [1] = experiment: Sensitization of E. coli to erythromycin (sensitization fold from IC90, OD600, 20 h); assay type: cell-based, Escherichia coli; settings: for SF (E. coli): sensitization fold = IC90 of erythromycin without/with compound, compound concentration not given, T=toxic; for SF (E. coli) at 20 μM: compound at 20 μM; for SF (E. coli) at 10 μM: compound at 10 μM
Procedure: E. coli bacteria were cultured in Miller's broth at 37° C. overnight prior to treatment. B. subtilis bacteria were cultured in nutrient broth at 37° C. overnight prior to treatment. […] Bacterial density was measured based on OD600.

wild-type E. coli = experiment: Sensitization of wild-type E. coli toward antibiotics (MIC of antibiotic with/without sensitizer); assay type: cell-based, Escherichia coli; settings: for Sensitization fold: compound at 5 μg/ml, strain and antibiotic not stated in Table 8
Procedure: Bacteria were cultured with the antibiotic at various concentrations in the presence or absence of bacterial sensitizer for 24 hours at 37° C. Bacterial growth density was determined by measuring OD600 (absorbance measured at a wavelength of 600 nm). […]
The formula for calculating FIC is shown below: […]

E. coli [2] = experiment: MIC of compounds against E. coli (OD600, 48 h); assay type: cell-based; settings: Escherichia coli; for inhibition at 12 µM: compound alone at 12 μM, read-out: Growth inhibition of E. coli at 12 μM; for inhibition at 25 µM: read-out: Growth inhibition of E. coli at 25 μM, compound alone at 25 μM, NA=no activity; for inhibition at 50 µM: read-out: Growth inhibition of E. coli at 50 μM, compound alone at 50 μM, NA=no activity
B. subtilis = experiment: MIC of compounds against B. subtilis (OD600, 48 h); assay type: cell-based; settings: Bacillus subtilis; for MIC: MIC = 90% growth inhibition, compound alone; for inhibition at 1 µM: read-out: Growth inhibition of B. subtilis at 1 μM, compound alone at 1 μM; for inhibition at 2 µM: read-out: Growth inhibition of B. subtilis at 2 μM, compound alone at 2 μM; for inhibition at 6 µM: read-out: Growth inhibition of B. subtilis at 6 μM, compound alone at 6 μM, NA=no activity; for inhibition at 12 µM: compound alone at 12 μM, read-out: Growth inhibition of B. subtilis at 12 μM; for inhibition at 3 µM: read-out: Growth inhibition of B. subtilis at 3 μM, compound alone at 3 μM, NA=no activity; for inhibition at 12.5 µM: compound alone at 12.5 μM, NA=no activity, read-out: Growth inhibition of B. subtilis at 12.5 μM; for inhibition at 25 µM: read-out: Growth inhibition of B. subtilis at 25 μM, compound alone at 25 μM
Procedure: Bacteria were then cultured with varying concentration of the compounds shown below for 48 hours, and then bacterial density was measured based on OD600. The procedure to determine the MIC for each compound against B. subtilis was the same except that the bacteria was cultured in nutrient broth. The MIC of each compound against B. subtilis is shown in Table 2 (NA=no activity, --=not tested).

SMILES: N=C(N)c1ccc(OCc2cccc(COc3ccc(C(=N)N)cc3)c2F)cc1 [drawing 718]
- SF (E. coli) (E. coli [1]; NA=no activity): <2

SMILES: N=C(N)c1ccc(OCc2cccc(COc3ccc(C(=N)N)cc3F)c2F)c(F)c1 [Compound A-1, 4,4′-(((2-Fluoro-1,3-phenylene)bis(methylene))bis(oxy))bis(3-fluorobenzimidamide) Dihydrochloride]
- Sensitization fold (wild-type E. coli): 8

SMILES: COc1cc(OCc2ccc(C(=N)N)cc2)cc(OCc2ccc(C(=N)N)cc2)c1
- SF (E. coli) at 20 μM (E. coli [1]; erythromycin): No effect at 20 μM

SMILES: CC(C)(C)c1cc(COc2ccc(C(=N)N)cc2F)cc(COc2ccc(C(=N)N)cc2F)c1 [Compound E-15, 1,3-bis {[4-amidino-2-fluoro]-phenoxymethyl]}-5-(tert-butyl)benzene dihydrochloride]
- Sensitization fold (wild-type E. coli): 256

SMILES: Cc1cc(COc2ccc(C(=N)NC(C)C)cc2)cc(COc2ccc(C(=N)NC(C)C)cc2)c1 [Compound C-3, 1,3-Bis {(4-isopropylamidino)-phenoxymethyl}-5-methylbenzene dihydrochloride]
- Ability to sensitize Gram-negative bacteria (while preserving ability to sensitize some Gram-positive bacteria) (E. coli [1]; general statement on amidine substitution or ring restraint): greatly decrease, or even abolish

SMILES: Cc1cc(-c2nc3cc(C(=N)N)ccc3n2C)sc1-c1ccc(OCCCCOc2ccc(C(=N)N)cc2)cc1 [drawing 715]
- SF (E. coli) (E. coli [1]; NA=no activity): <2

SMILES: CC(C)(C)c1cc(COc2ccc(C(=N)N)cc2)cc(COc2ccc(C(=N)N)cc2)c1 [drawing 770]
- inhibition at 12 µM (E. coli [2]; NA=no activity): 40%
- inhibition at 25 µM (E. coli [2]): 90%
- MIC (B. subtilis): 6 µM
- inhibition at 1 µM (B. subtilis): 10%
- inhibition at 2 µM (B. subtilis): 70%

SMILES: Cn1c(-c2ccc(-c3ccc(C(=N)N)cc3)s2)nc2cc(-c3ccc(C(=N)N)cc3)ccc21 [drawing 771]
- inhibition at 25 µM (E. coli [2]): 15%
- MIC (B. subtilis): 12 µM
- inhibition at 2 µM (B. subtilis): 20%
- inhibition at 6 µM (B. subtilis): 50%

SMILES: COc1cc(C(=N)N)ccc1OCc1cccc(COc2ccc(C(=N)N)cc2OC)c1F [drawing 769]
- inhibition at 12 µM (E. coli [2]; NA=no activity): 30%
- inhibition at 25 µM (E. coli [2]): 50%
- inhibition at 12 µM (B. subtilis): 50%
- inhibition at 6 µM (B. subtilis): 25%

SMILES: N=C(N)c1ccc(OCc2cc(COc3ccc(C(=N)N)cc3)cc(COc3ccc(C(=N)N)cc3)c2)cc1 [drawing 781]
- inhibition at 12 µM (E. coli [2]; NA=no activity): 40%
- inhibition at 25 µM (E. coli [2]): 60%
- MIC (B. subtilis): 12 µM
- inhibition at 6 µM (B. subtilis): 80%

SMILES: Cc1cc(-c2nc3cc(C(=N)N)ccc3n2C)sc1-c1ccc(OCCCCOc2ccc(C(=N)N)cc2)cc1 [drawing 775]
- inhibition at 25 µM (E. coli [2]): 30%
- inhibition at 12 µM (B. subtilis): 70%

SMILES: N=C(N)c1ccc(OCCCCCOc2ccc(C(=N)N)cc2)cc1 [Pentamidine, pentamidine]
- Minimal concentration achieving 10-fold sensitization of E. coli toward erythromycin (wild-type E. coli): 40 μg/ml

SMILES: N=C(N)c1ccc(OCc2cccc(COc3ccc(C(=N)N)cc3)c2F)cc1 [drawing 758]
- inhibition at 12 µM (E. coli [2]; NA=no activity): 80%
- inhibition at 6 µM (E. coli [2]; read-out: Growth inhibition of E. coli at 6 μM, compound alone at 6 μM): 60%
- inhibition at 12 µM (B. subtilis): 60%
- inhibition at 6 µM (B. subtilis): 50%

SMILES: N=C(N)c1ccc2[nH]c(-c3ccc(-c4ccc(-c5ccc(-c6ccc(-c7nc8cc(C(=N)N)ccc8[nH]7)cc6)s5)s4)cc3)nc2c1 [drawing 772]
- inhibition at 50 µM (E. coli [2]): 10%
- inhibition at 12 µM (B. subtilis): 20%
- inhibition at 6 µM (B. subtilis): 20%

SMILES: Cc1cc(COc2ccc(C3=NCCN3)cc2)cc(COc2ccc(C3=NCCN3)cc2)c1 [drawing 779]
- inhibition at 12 µM (E. coli [2]; NA=no activity): 10%
- inhibition at 25 µM (E. coli [2]): 25%
- inhibition at 12 µM (B. subtilis): 25%
- inhibition at 6 µM (B. subtilis): 20%

SMILES: Cc1cc(OCc2ccc(C(=N)N)cc2)cc(OCc2ccc(C(=N)N)cc2)c1 [drawing 783]
- inhibition at 25 µM (E. coli [2]): 30%
- inhibition at 12 µM (B. subtilis): 20%

SMILES: Cc1cc(COc2ccc(C(=N)N)cc2F)cc(COc2ccc(C(=N)N)cc2F)c1 [drawing 747]
- SF (E. coli) at 25 μM (E. coli [1]; erythromycin, compound at 25 μM, NA=no activity): 64-fold at 25 μM

SMILES: Cc1cc(CSc2ccc(C(=N)N)cc2)cc(CSc2ccc(C(=N)N)cc2)c1 [drawing 791]
- inhibition at 12 µM (E. coli [2]; NA=no activity): 15%
- inhibition at 3 µM (B. subtilis): 10%
- inhibition at 6 µM (B. subtilis): 40%

SMILES: COc1cc(C(=N)N)ccc1OCc1cc(COc2ccc(C(=N)N)cc2OC)cc(C(C)(C)C)c1 [drawing 788]
- inhibition at 50 µM (E. coli [2]): 80%
- inhibition at 3 µM (B. subtilis): 30%
- inhibition at 6 µM (B. subtilis): 40%

SMILES: N=C(N)c1ccc(OCc2ccc(COc3ccc(C(=N)N)cc3)cc2)cc1 [drawing 766]
- inhibition at 12 µM (E. coli [2]; NA=no activity): 10%
- inhibition at 25 µM (E. coli [2]): 20%
- inhibition at 12 µM (B. subtilis): 70%
- inhibition at 6 µM (B. subtilis): 60%

SMILES: CC(C)(C)c1cc(COc2ccc(C(=N)N)cc2)cc(COc2ccc(C(=N)N)cc2)c1 [drawing 732]
- SF (E. coli) at 12.5 μM (E. coli [1]; erythromycin, compound at 12.5 μM, NA=no activity): 4-fold at 12.5 μM

SMILES: Cc1cc(COc2ccc(C(=N)N)cc2F)cc(COc2ccc(C(=N)N)cc2F)c1 [Compound E-18, 1,3-Bis {[4-amidino-2-fluoro)-phenoxymethyl]}-5-methyl-benzene dihydrochloride]
- Sensitization fold (wild-type E. coli): 32

SMILES: CCCCc1cc(OCc2ccc(C(=N)N)cc2)cc(OCc2ccc(C(=N)N)cc2)c1 [drawing 749]
- SF (E. coli) at 10 μM (E. coli [1]; erythromycin): 10 μM > 32 fold

SMILES: N=C(N)c1ccc(COc2cc(OCc3ccc(C(=N)N)cc3)cc(C(F)(F)F)c2)cc1 [drawing 750]
- SF (E. coli) at 10 μM (E. coli [1]; erythromycin): 10 μM > 32 fold

SMILES: N=C(N)c1ccc(OCc2cccc(COc3ccc(C(=N)N)cc3)c2)cc1 [drawing 712]
- SF (E. coli) (E. coli [1]; NA=no activity): <2

SMILES: Cn1c(CCc2nc3cc(C(=N)N)ccc3n2C)nc2cc(C(=N)N)ccc21 [drawing 759]
- inhibition at 50 µM (E. coli [2]): 10%
- inhibition at 12.5 µM (B. subtilis): 20%
- inhibition at 25 µM (B. subtilis): 70%

SMILES: N=C(N)c1ccc(OCc2ccc(-c3ccc(C(=N)N)cc3)cc2)cc1 [drawing 711]
- SF (E. coli) (E. coli [1]; NA=no activity): <2

SMILES: CC(C)(C)c1cc(COc2ccc(C(=N)N)cc2F)cc(COc2ccc(C(=N)N)cc2F)c1 [drawing 789]
- MIC (E. coli [2]; MIC = 90% growth inhibition, compound alone, NA=no activity): 50 µM
- MIC (B. subtilis): 50 µM

SMILES: N=C(N)c1ccc(OCc2cccc(COc3ccc(C(=N)N)cc3F)c2F)c(F)c1 [drawing 757]
- inhibition at 12 µM (E. coli [2]; NA=no activity): 40%
- inhibition at 25 µM (E. coli [2]): 70%
- inhibition at 50 µM (E. coli [2]): 90%
- MIC (B. subtilis): 12.5 µM
- inhibition at 2 µM (B. subtilis): 10%

SMILES: N=C(N)c1ccc2nc(-c3ccc(OCC(F)(F)C(F)(F)COc4ccc(-c5nc6ccc(C(=N)N)cc6[nH]5)cc4)cc3)[nH]c2c1 [drawing 753]
- inhibition at 25 µM (E. coli [2]): 50%
- inhibition at 12.5 µM (B. subtilis): 10%
- inhibition at 25 µM (B. subtilis): 20%

SMILES: Cc1cc(COc2ccc(C(=N)N)cc2)cc(COc2ccc(C(=N)N)cc2)c1 [drawing 761]
- inhibition at 12 µM (E. coli [2]; NA=no activity): 15%
- inhibition at 25 µM (E. coli [2]): 25%
- inhibition at 12 µM (B. subtilis): 20%
- inhibition at 25 µM (B. subtilis): 50%

SMILES: CO/N=C(\N)c1ccc(OCc2cc(C)cc(COc3ccc(/C(N)=N\OC)cc3)c2)cc1 [drawing 748]
- SF (E. coli) at 20 μM (E. coli [1]; erythromycin): 4-fold at 20 μM

SMILES: N=C(N)c1ccc(OCc2ccc(-c3ccc(C(=N)N)cc3)cc2)cc1 [drawing 756]
- inhibition at 25 µM (E. coli [2]): 50%
- MIC (B. subtilis): 12.5 µM
- inhibition at 2 µM (B. subtilis): 30%

SMILES: N=C(N)c1ccc(OCCCCCCOc2ccc(C(=N)N)cc2)cc1 [drawing 778]
- inhibition at 12 µM (E. coli [2]; NA=no activity): 40%
- inhibition at 25 µM (E. coli [2]): 70%
- MIC (B. subtilis): 12 µM
- inhibition at 2 µM (B. subtilis): 30%
- inhibition at 6 µM (B. subtilis): 40%

SMILES: Cc1cc(COc2ccc(C(=N)NC(C)C)cc2)cc(COc2ccc(C(=N)NC(C)C)cc2)c1 [drawing 767]
- inhibition at 12 µM (E. coli [2]; NA=no activity): 40%
- inhibition at 25 µM (E. coli [2]): 50%
- MIC (B. subtilis): 6 µM
- inhibition at 1 µM (B. subtilis): 60%
- inhibition at 2 µM (B. subtilis): 70%

SMILES: Cc1cc(CCc2ccc(C(=N)N)cc2)cc(CCc2ccc(C(=N)N)cc2)c1 [drawing 782]
- inhibition at 12 µM (E. coli [2]; NA=no activity): 10%
- inhibition at 25 µM (E. coli [2]): 20%
- inhibition at 12 µM (B. subtilis): 80%
- inhibition at 6 µM (B. subtilis): 30%
